In ChEMBL document CHEMBL2311484, “Synthesis and biological evaluation of a new series of phenothiazine-containing protein farnesyltransferase inhibitors” (Eur J Med Chem, 2013):

The molecules below were run against Protein farnesyltransferase (Homo sapiens, UniProt P49354+P49356) (assay: Inhibition of human recombinant FTase activity using dansyl-GCVLS-peptide).
Format: protein-complex assay
CN(C)c1cc[n+](C(C=C(C#N)C#N)C(=O)N2c3ccccc3Sc3ccc(Cl)cc32)cc1 (stereo not drawn) showed an IC50 of 3.18 µM.
For CCOC(=O)/C(C#N)=C/C(C(=O)N1c2ccccc2Sc2ccc(Cl)cc21)[n+]1ccc(N(C)C)cc1 (stereo not drawn), the IC50 was 4.92 µM.
For N#CC(C#N)=CC(C(=O)N1c2ccccc2Sc2ccccc21)[n+]1ccccc1 (stereo not drawn), the IC50 was 13.1 µM.
Work on CCOC(=O)/C(C#N)=C/C(C(=O)N1c2ccccc2Sc2ccccc21)[n+]1ccccc1 (stereo not drawn) yielded an IC50 of 15 µM.
For Cc1ccc[n+](C(C=C(C#N)C#N)C(=O)N2c3ccccc3Sc3ccccc32)c1 (stereo not drawn), the IC50 was 11 µM.
Work on CCOC(=O)/C(C#N)=C/C(C(=O)N1c2ccccc2Sc2ccccc21)[n+]1cccc(C)c1 (stereo not drawn) yielded an IC50 of 7.01 µM.
With COc1cc[n+](C(C=C(C#N)C#N)C(=O)N2c3ccccc3Sc3ccccc32)cc1 (stereo not drawn) the IC50 was 10.3 µM.
CCOC(=O)/C(C#N)=C/C(C(=O)N1c2ccccc2Sc2ccccc21)[n+]1ccc(OC)cc1 (stereo not drawn) showed an IC50 of 13.7 µM.
Cc1cc(C)c[n+](C(C=C(C#N)C#N)C(=O)N2c3ccccc3Sc3ccccc32)c1 (stereo not drawn) was tested, and the IC50 was 6.36 µM.
CCOC(=O)/C(C#N)=C/C(C(=O)N1c2ccccc2Sc2ccccc21)[n+]1cc(C)cc(C)c1 (stereo not drawn) gave an IC50 of 7.27 µM.
N#CC(C#N)=CC=C1C=CN(CC(=O)N2c3ccccc3Sc3ccccc32)C=C1 was tested, and the IC50 was 0.65 µM.
With CCOC(=O)/C(C#N)=C\C=C1C=CN(CC(=O)N2c3ccccc3Sc3ccccc32)C=C1 the IC50 was 0.63 µM.
N#CC(C#N)=C/C=C1\C=CC=CN1CC(=O)N1c2ccccc2Sc2ccccc21 gave an IC50 of 1.2 µM.
In the case of CCOC(=O)/C(C#N)=C\C=C1/C=CC=CN1CC(=O)N1c2ccccc2Sc2ccccc21, the IC50 is reported as 1.07 µM.
CCOC(=O)/C(C#N)=C\C=C1C=CN(CC(=O)N(CC)CC)C=C1 showed an IC50 of 43.1 µM.
In the case of CN(C)c1cc[n+](C(C=C(C#N)C#N)C(=O)N2c3ccccc3Sc3ccccc32)cc1 (stereo not drawn), the IC50 is reported as 4.67 µM.
With CCOC(=O)/C(C#N)=C/C(C(=O)N1c2ccccc2Sc2ccccc21)[n+]1ccc(N(C)C)cc1 (stereo not drawn) the IC50 was 5.33 µM.
For CN(C)c1cc[n+](C(/C=C/C(=O)O)C(=O)N2c3ccccc3Sc3ccccc32)cc1 (stereo not drawn), the IC50 was 86.5 µM.
